# In patent US11219623B2, “Inflammasome inhibition for the treatment of Parkinson's disease, Alzheimer's disease and multiple sclerosis” (University of Kentucky Research Foundation, priority 2015, dated 2022):
# Entries after “also recorded” stand apart in the source; their conditions may differ.
# Assays:
# Caspase-1 [1] = assay: Iron (III) ammonium citrate-induced Caspase-1 activation, western blot, primary human RPE cells; assay type: cell-based; conditions: 25 μM, Fe(III) ammonium citrate (100 μM)
# Description: Caspase-1 activation (p20 subunit) in primary human retinal pigment epithelium (RPE) cells in the presence of iron (III) ammonium citrate was studied.
# Caspase-1 activation (p10 subunit) in primary human RPE cells in the presence of iron (III) ammonium citrate was studied.
# Alu RNA is a toxic endogenous retroelement that accumulates in and causes death of the RPE in patients with dry AMD. […] FAC activates Caspase-1 via an Alu RNA intermediate, and induces NLRP3-dependent RPE degeneration (Gelfand et al. Cell Reports 2015). Fe(III) ammonium citrate (100 μM)-induced Caspase-1 activation in primary human RPE cells, monitored by western blotting, is reduced by TM-3TC (25 μM), d4T-ene (25 μM), 2Me-d4T (25 μM), Me-AZT (25-100 μM), and 2Me-AZT (25 μM). N=3-4.
# wild-type mice [2] = assay: Alu RNA-induced RPE degeneration, mouse model of dry AMD
# mtDNA = assay: Relative quantity of mtDNA, quantitative PCR, primary human RPE cells; conditions: 50 μM; four days; relative to DMSO
# [3] = LogP, partition coefficient in 1-octanol; assay type: physicochemical; conditions: 1-octanol partition
# JR5558 mice = assay: Spontaneous CNV in JR5558 mice, fluorescein angiography dye leakage; assay type: in vivo, mouse
# Description: JR5558 mice develop spontaneous choroidal neovascularization (CNV) and are an animal model of wet/neovascular age-related macular degeneration (AMD). The activity of the CNV lesions can be monitored using fluorescein angiography to assess the degree of dye leakage from the lesions, as is done in humans with this disease. FIGS. 81 and 82 are representative images from two JR5558 mice (N=8). The first and third row of FIGS. 81 and 82 show time dependent dye leakage from pre-existing CNV lesions in the left eye (first row) and right eye (third row) of a first and second JR5558 mouse, respectively.
# [4] = test system: human LINE-1 retrotransposon; assay: EGFP cell culture L1 retrotransposition assay in HeLa cells; assay type: cell-based; conditions: 7 days after transfection, flow cytometry
# Description: These findings pave way for the rational re-design and improvement of nucleoside analogs as novel therapeutics. The enhanced green fluorescent protein (EGFP) cell culture L1 retrotransposition assay was performed in HeLa cells. […] Transfected cells were selected in puromycin. 7 days after transfection, cells that underwent retrotransposition (EGFP-positive) were assayed by flow cytometry. Cells were gated based on background fluorescence of plasmid JM111, which has two point mutations in L1-ORF1 that abolish retrotransposition. Data are normalized with RPS set to 1.
# [5] = test system: GFP-expressing lentivirus; assay: GFP-expressing lentivirus transduction/replication assay in HeLa cells; assay type: cell-based; conditions: for lentivirus replication (GFP-positive cells per field): 10 μM, 72 hours, MOI 20
# Description: All drugs were added at a concentration of 10 μM. Cells were imaged for GFP expression 72 hours after addition of lentivirus. GFP-positive cells per field of view were recorded. n=4-11, error bars S.E.M. Reverse transcription of lentivirus is essential for GFP expression; modified NRTIs should not block reverse transcriptase, whereas NRTIs are known to block reverse transcriptase.
# The present disclosure further provides the results of additional experiments in FIG. 21-FIG. 23.
# Solubility in water = assay type: physicochemical; conditions: aqueous buffer; Water pH 7.2 at 37° C.
# Caspase-1 [6] = assay: Alu RNA-induced Caspase-1 activation, western blot, primary human RPE cells; assay type: cell-based; conditions: for Alu RNA-induced Caspase-1 activation/cleavage: concentration not given
# Description: The bottom row in FIG. 5 is a vinculin loading control.
# Caspase-1 [7] = assay: iGLuc luminescence assay of ATP-induced Caspase-1 activation in J774 iGLuc cells; assay type: cell-based, mouse; conditions: for Caspase-1 cleavage (luminescence): ATP 5 mM, N=3
# Description: Caspase-1 is the enzyme at the core of the inflammasome complex and is an important danger response signal and mediator of RPE cell death in AMD. […] Importantly, there was some difference between individual compounds in terms of the dose response curve, emphasizing the need to test each compound (with unique R group(s)) individually.
# To obtain the data set forth in FIGS. 64-73, an iGLuc assay was conducted (modified from Bartok et al. iGLuc: a luciferase-based inflammasome and protease activity reporter. Nature Methods 2013; 10(2):147-54). Briefly, 100,000 iGLuc cells per well were plated in a 96 well plate overnight. The next morning, media is aspirated from the plate and replaced with 75 μL of serum free DMEM with drugs (NRTIs or modified NRTIs) for 30 min. After 30 minutes of drug exposure, 20 mM ATP (25 μL) is added for a final concentration of 5 mM. 50 μL of media from each well is collected and 50 μL of coelenterazine 4.4 μM is added to each sample, and luminescence is read immediately.
# wild-type mice [8] = assay: pAlu-induced RPE degeneration, mouse model of dry AMD; assay type: in vivo
# Description: Mouse studies were conducted to study treatment with NRTIs or derivatives.
# mice [9] = assay: Iron-induced RPE degeneration in mice; assay type: in vivo, mouse; conditions: intraperitoneal 25 mg/kg days 1 to 6; read day 7
# wild-type mice [10] = assay: Laser-induced choroidal neovascularization (CNV; wet AMD) in wild-type mice; conditions: N=16
# wild-type mice [11] = assay: Poly IC-induced RPE degeneration in mice; assay type: in vivo, mouse; conditions: intravitreous; measured 7 days after poly IC
# human P2X7 receptor = biological target: T1, human P2X7 receptor (Homo sapiens, UniProt Q99572); conditions: HEK293 stably expressing human P2X7; concentration not given
# T1 sequence (Q99572 1-595): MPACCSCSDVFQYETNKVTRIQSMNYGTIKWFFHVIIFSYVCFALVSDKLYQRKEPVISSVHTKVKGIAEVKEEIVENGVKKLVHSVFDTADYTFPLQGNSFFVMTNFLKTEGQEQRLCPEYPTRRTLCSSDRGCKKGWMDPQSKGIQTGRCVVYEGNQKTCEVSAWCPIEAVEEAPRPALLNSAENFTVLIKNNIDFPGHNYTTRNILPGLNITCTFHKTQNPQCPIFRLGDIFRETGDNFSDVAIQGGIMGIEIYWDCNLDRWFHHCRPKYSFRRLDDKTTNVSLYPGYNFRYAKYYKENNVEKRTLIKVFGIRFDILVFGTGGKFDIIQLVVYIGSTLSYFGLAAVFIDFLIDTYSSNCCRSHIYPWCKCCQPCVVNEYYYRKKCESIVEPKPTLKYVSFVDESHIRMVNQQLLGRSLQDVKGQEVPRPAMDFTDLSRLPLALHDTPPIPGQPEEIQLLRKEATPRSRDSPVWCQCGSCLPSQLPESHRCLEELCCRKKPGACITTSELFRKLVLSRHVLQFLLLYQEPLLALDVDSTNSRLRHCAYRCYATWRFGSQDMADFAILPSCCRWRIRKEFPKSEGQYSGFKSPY
# IL-1 beta = assay: LPS/ATP-induced IL-1 beta activation in Raji TK− and TK+ cells, western blot; assay type: cell-based
# Description: (§1) To determine whether LPS/ATP-induced inflammasome activation can be inhibited without RT inhibition, the present inventors utilized thymidine kinase-deficient (Raji/TK^−) and -expressing (Raji/TK^+) cells (Balzarini et al., 1989).
# [12] = test system: Raji TK^+ and Raji TK^− cells; assay: Phosphorylation of AZT to AZT-triphosphate in Raji TK+ / TK− cells, LC-MS; assay type: in vitro ADME
# Description: as §1
# FIG. 50 is a standard curve of AZT-TP standards (black circle). […] FIG. 50 is representative of two experiments.
# mice [13] = assay: Amyloid beta-induced RPE degeneration in mice; assay type: in vivo, mouse; conditions: intraperitoneal 25 mg/kg days 1 to 6; read day 7
# [14] = intraperitoneal 25 mg/kg twice daily
SMILES,relative quantity of mtDNA (mtDNA depletion) (mtDNA),logP [3],L1 retrotransposition (EGFP-positive cells) [4],lentivirus replication (GFP-positive cells per field) [5],solubility (Solubility in water) [µg/mL],Caspase-1 cleavage (luminescence) (Caspase-1 [7]; drug 1 nM-100 μM),pAlu-induced RPE degeneration (wild-type mice [8]; [14]),Iron-induced RPE degeneration (mice [9]),poly IC-induced RPE degeneration (wild-type mice [11]),Alu RNA-induced Caspase-1 activation/cleavage (Caspase-1 [6]),further results
"COC[C@@H]1O[C@H](n2ccc(N(C)C)nc2=O)CS1 [Kamuvudine 3Me-3TC, 4-(dimethylamino)-1-[(2R,5S)-2-(methoxymethyl)-1,3-oxathiolan-5-yl]-1,2-dihydropyrimidin-2-one]",do not reduce mtDNA,0.09,no effect on L1 activity,do not block lentivirus replication,7000,reduces Caspase-1 cleavage in a dose-dependent fashion,protects against RPE degeneration,,,,"iron-induced Caspase-1 activation (Caspase-1 [1]; listed as TM-3TC): blocked iron-induced Caspase-1 activation; also recorded: reduced; Alu RNA-induced RPE degeneration (wild-type mice [2]; intraperitoneal 25 mg/kg, twice daily for 6 days): protects against RPE degeneration; CNV lesion leakage compared to 3TC (JR5558 mice; 62.5 ng vs 125 ng 3TC): greater reduction in CNV lesion leakage; activity (dye leakage) of pre-existing CNV lesions (JR5558 mice; single intravitreous 62.5 ng, 3 days after administration): suppress the activity of pre-existing CNV lesions; Alu RNA induced Caspase-1 activation (Caspase-1 [6]; 25-100 μM (25 and 100 μM), listed as TM-3TC): blocked Alu-induced Caspase-1 activation; also recorded: reduced"
"COC[C@@H]1C=C[C@H](n2cc(C)c(=O)[nH]c2=O)O1 [Me-d4T, 1-[(2R,5S)-5-(methoxymethyl)-2,5-dihydrofuran-2-yl]-5-methyl-1,2,3,4-tetrahydropyrimidine-2,4-dione]",do not exhibit mtDNA depletion,0.41,no effect on L1 activity,do not block lentivirus replication,30000,,,blocked the development of RPE degeneration,blocks this degeneration,blocks Caspase-1 activation,"Alu-induced RPE degeneration (wild-type mice [2]; intraperitoneal injection, dose not stated): prevents Alu-induced RPE degeneration; choroidal neovascularization (CNV) volume (wild-type mice [10]; intravitreous 0.14 nmol, day 7): reduced choroidal neovascularization (CNV) volume; replication of GFP-expressing lentivirus ([5]; FIG. 22, concentration not given): does not block lentivirus replication; Caspase-1 cleavage (luminescence) (Caspase-1 [7]; drug 100 μM): reduces Caspase-1 cleavage in a dose-dependent fashion; reduction of inflammasome activation (Caspase-1 [7]; ATP (5 mM), mouse J774 iGLuc cells, FIGS. 70-73): about 70%"
"Cc1cn([C@H]2C[C@H](N=[N+]=[N-])[C@@H](CO)O2)c(=O)[nH]c1=O [AZT, 3′-azido-2′,3′-dideoxythymidine, reference compound]",,-0.41,blocked L1 retrotransposition,blocked lentivirus GFP expression,,reduces Caspase-1 cleavage in a dose-dependent fashion,,,,block Caspase-1 cleavage,"laser injury-induced CNV volume (wild-type mice [10]; intravitreous 0.55 nmol): reduced laser injury-induced CNV volume; P2X7-dependent YO-PRO-1 uptake induced by bzATP (human P2X7 receptor): inhibited P2X7-dependent uptake; IL-1 beta activation by LPS/ATP (IL-1 beta; Raji TK+ cells): blocks IL-1 beta activation; IL-1 beta activation by LPS/ATP (IL-1 beta; Raji TK− cells): blocks IL-1 beta activation; formation of AZT-triphosphate (AZT-TP) ([12]; Raji TK+ cells): produced AZT-TP; formation of AZT-triphosphate (AZT-TP) ([12]; Raji TK− cells): not detectable; Alu RNA-induced Caspase-1 maturation (Caspase-1 [6]; 50-100 uM, 24 hours after Alu administration): blocked; pAlu-induced RPE degeneration (wild-type mice [8]; intraperitoneal administration, dose not stated): blocked RPE degeneration"
"COCC1C=C[C@H](n2cc(C)c(=O)n(C)c2=O)O1 (stereo partly drawn) [Kamuvudine 2Me-d4T, 1-[(2R)-5-(methoxymethyl)-2,5-dihydrofuran-2-yl]-3,5-dimethyl-1,2,3,4-tetrahydropyrimidine-2,4-dione]",do not exhibit mtDNA depletion,0.63,no effect on L1 activity,do not block lentivirus replication,10000,,restored to healthy RPE morphology/intercellular junctions,blocked the development of RPE degeneration,blocks this degeneration,,iron-induced Caspase-1 activation (Caspase-1 [1]): reduced; iron-induced Caspase-1 activation (Caspase-1 [1]; listed as 2me-d4T): blocked iron-induced Caspase-1 activation; Amyloid beta-induced RPE degeneration (mice [13]): blocked the development of RPE degeneration
